Data as given in ChEMBL document CHEMBL1201862, “PubChem BioAssay data set” (2004).
Calls of active or inactive are those of the source.

What was measured:
[1] = biological target: fMet-Leu-Phe receptor (Homo sapiens, UniProt P21462); test: formyl peptide receptor binders – dose response (AID 519); format: functional
[2] = biological target: T1, Cytochrome P450 1A2 (Homo sapiens, UniProt P05177);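 also: PubChem cytochrome P450 panel assay, CYP1A2 panel member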
T1 sequence (P05177 whole entry): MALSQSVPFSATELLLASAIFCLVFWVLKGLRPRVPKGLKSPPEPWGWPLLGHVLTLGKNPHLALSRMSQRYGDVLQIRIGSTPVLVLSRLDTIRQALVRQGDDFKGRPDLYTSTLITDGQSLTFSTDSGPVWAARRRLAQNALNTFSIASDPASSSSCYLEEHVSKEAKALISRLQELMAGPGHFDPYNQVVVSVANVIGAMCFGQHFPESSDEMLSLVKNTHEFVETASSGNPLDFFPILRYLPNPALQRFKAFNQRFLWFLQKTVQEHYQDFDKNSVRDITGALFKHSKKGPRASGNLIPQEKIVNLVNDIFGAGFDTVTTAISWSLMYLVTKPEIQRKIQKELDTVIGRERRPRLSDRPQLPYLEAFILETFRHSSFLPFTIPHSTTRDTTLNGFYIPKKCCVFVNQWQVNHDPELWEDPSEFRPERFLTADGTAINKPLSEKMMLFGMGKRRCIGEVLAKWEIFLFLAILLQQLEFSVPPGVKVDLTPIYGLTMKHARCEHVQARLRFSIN

[3] = reduction of Shn3 3'UTR-driven luciferase in osteoblasts – cell-based, Clone20 osteoblasts, firefly luciferase, cherry-picked, dose response (AID 624132); format: functional;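 also: firefly luciferase luminescence from reporter carrying the Shn3 3'UTR in osteoblasts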
[4] = loss of viability in HepG2 cells – cell-based, CellTiter-Glo, cherry-picked, cytotoxicity control for Shn3 inhibitor project, dose response (AID 624134); format: functional
[5] = non-specific 3'UTR reporter inhibition in Clone20-Shn3RL – cell-based, Renilla luciferase, cherry-picked, counter-screen for Shn3 inhibitor project, dose response (AID 624133); format: functional
[6] = biological target: Protein Wnt-3a (Mus musculus, UniProt P27467); test: antagonism of Wnt3a pathway luciferase reporter – Wnt-LIGHT cells, luminescence, selectivity assay for Gli-SUFU antagonist project, dose response (AID 651570); format: functional; settings: read-out: IC50_Mean;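 also: Wnt-LIGHT reporter cells stimulated with conditioned medium from Wnt3a-producing cells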
[7] = biological target: Matrix metalloproteinase-14 (Homo sapiens, UniProt P50281); test: Dose Response confirmation of uHTS hits for a small molecule inhibitors of MT1-MMP activation in a fluorescence assay set 1.; format: functional
[8] = biological target: Endoplasmic reticulum aminopeptidase 1 (Homo sapiens, UniProt Q9NZ08); test: inhibition of human ERAP1 enzyme activity – biochemical, cherry-pick, set 2, plate reader, dose response (AID 743314)
[9] = tested on: Vero; test: viability of Vero cells under compound – cytotoxicity control for flavivirus capping enzyme inhibitors (AID 588742); format: functional; settings: Chlorocebus sabaeus
[10] = biological target: T2, Histone-lysine N-methyltransferase NSD2 (Homo sapiens, UniProt O96028); format: biochemical
T2 sequence (O96028 whole entry): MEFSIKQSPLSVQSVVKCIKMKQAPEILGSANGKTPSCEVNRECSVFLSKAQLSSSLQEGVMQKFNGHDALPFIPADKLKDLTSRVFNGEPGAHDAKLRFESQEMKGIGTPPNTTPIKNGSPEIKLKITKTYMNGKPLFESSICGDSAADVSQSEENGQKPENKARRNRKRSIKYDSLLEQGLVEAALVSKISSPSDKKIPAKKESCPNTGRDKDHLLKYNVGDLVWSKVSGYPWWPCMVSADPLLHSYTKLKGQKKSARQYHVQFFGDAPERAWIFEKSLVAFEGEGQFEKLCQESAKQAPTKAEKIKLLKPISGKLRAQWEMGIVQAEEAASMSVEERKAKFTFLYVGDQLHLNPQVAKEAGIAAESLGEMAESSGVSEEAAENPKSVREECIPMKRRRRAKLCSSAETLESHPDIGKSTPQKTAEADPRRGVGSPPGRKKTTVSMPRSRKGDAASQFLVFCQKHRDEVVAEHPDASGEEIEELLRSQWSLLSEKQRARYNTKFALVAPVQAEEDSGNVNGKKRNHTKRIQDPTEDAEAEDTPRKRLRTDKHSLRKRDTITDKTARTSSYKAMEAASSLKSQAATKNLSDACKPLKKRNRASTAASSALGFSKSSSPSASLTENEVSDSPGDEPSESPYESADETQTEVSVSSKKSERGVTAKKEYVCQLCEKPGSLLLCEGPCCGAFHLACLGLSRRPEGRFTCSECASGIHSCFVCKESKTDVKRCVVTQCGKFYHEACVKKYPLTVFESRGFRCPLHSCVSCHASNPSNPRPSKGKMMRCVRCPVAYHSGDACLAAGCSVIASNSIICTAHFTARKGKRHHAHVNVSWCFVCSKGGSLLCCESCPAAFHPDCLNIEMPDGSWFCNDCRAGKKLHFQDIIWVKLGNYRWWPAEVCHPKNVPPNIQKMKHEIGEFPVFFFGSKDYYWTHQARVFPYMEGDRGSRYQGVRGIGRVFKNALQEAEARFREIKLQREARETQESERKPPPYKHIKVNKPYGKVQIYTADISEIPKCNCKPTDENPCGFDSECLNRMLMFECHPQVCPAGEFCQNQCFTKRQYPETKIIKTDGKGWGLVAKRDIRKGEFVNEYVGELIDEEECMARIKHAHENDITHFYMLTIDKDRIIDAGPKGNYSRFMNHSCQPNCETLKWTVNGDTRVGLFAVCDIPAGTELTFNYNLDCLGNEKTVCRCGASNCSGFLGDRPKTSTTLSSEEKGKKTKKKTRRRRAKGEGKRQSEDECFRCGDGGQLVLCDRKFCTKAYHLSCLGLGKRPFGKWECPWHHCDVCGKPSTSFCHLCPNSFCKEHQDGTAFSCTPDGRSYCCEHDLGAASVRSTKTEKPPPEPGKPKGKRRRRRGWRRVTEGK

[11] = biological target: Tyrosyl-DNA phosphodiesterase 2 (Homo sapiens, UniProt O95551); test: potency against TDP2 phosphodiesterase activity – biochemical, epi absorbance, IC50, dose response (AID 743297)
[12] = biological target: Mu-type opioid receptor (Homo sapiens, UniProt P35372); format: functional, cell-based;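 also: U2OS cells with beta-arrestin recruitment to OPRM1 by beta-gal complementation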
[13] = biological target: 5-hydroxytryptamine receptor 2A (Mus musculus, UniProt P35363); format: functional, cell-based;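 also: CHO-K1 cells with tagged receptor and beta-arrestin; agonist potency measured as compound-induced activation of the receptor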
[14] = cells; format: functional, cell-based
[15] = biological target: T3, Nuclear receptor subfamily 0 group B member 1 (Homo sapiens, UniProt P51843); format: functional, cell-based;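 also: HEK293T cells transfected with SF-1 and DAX-1 plus StAR promoter luciferase reporter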
T3 sequence (P51843 whole entry): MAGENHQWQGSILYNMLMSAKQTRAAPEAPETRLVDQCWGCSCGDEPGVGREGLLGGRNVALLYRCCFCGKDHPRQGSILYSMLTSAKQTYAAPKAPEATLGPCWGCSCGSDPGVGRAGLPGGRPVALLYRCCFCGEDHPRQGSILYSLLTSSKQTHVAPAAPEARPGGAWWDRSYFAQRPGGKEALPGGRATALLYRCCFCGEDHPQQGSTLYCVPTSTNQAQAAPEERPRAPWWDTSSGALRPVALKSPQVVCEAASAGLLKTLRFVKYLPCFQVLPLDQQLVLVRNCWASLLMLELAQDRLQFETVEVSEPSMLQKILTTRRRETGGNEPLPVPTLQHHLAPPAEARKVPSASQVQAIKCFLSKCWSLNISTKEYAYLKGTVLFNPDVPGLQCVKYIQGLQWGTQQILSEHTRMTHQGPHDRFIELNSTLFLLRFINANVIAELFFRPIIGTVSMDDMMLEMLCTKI

[16] = tested on: Streptococcus sp. 'group A'; test: Streptococcus pyogenes SK(-)GAS viability under kanamycin – luminescence, BacTiterGlo, confirmation, counter-screen for streptokinase expression inhibitor project, dose response (AID 1900); format: functional, organism-based
[17] = biological target: T4, Streptokinase A (Streptococcus pyogenes serotype M1, UniProt P10520); test: viability-normalized secreted streptokinase activity reduction – plasminogen activation absorbance, OD405, dose response (AID 1914); format: functional, Streptococcus pyogenes M1 GAS;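 also: secreted streptokinase activity via plasminogen activation per viability signal from cell pellet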
T4 sequence (P10520 whole entry): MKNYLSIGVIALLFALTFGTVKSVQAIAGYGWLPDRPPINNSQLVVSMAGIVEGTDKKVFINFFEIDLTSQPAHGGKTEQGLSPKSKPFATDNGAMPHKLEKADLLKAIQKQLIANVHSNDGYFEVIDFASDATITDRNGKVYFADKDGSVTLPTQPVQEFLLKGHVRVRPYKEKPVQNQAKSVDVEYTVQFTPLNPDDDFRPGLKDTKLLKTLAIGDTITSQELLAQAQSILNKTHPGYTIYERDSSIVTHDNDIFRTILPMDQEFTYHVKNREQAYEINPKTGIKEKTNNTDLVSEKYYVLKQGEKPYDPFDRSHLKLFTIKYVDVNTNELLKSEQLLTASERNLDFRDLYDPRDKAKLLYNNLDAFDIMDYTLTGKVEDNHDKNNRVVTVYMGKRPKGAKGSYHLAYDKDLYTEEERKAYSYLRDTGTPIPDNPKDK

[18] = biological target: Induced myeloid leukemia cell differentiation protein Mcl-1 (Homo sapiens, UniProt Q07820); format: functional
[19] = tested on: Streptococcus; test: GAS UMAA2166 growth inhibition – luminescence, BacTiterGlo, counter-screen for streptokinase expression inhibitor project, dose response (AID 1915); format: functional, organism-based;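 also: potency for reduction of bacterial viability or growth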
[20] = biological target: Genome polyprotein (dengue virus type 2, UniProt P29990); test: flavivirus cap methylation enzyme inhibition – biochemical, confirmation dose response, primary screen (AID 588689); format: functional
[21] = biological target: Long-chain-fatty-acid--AMP ligase FadD28 (Mycobacterium tuberculosis, UniProt P9WQ59); test: Fluorescence polarization aasay to screen for inhibitors that compete for the binding of FadD28 to a bisubstrate Measured in Biochemical System Using Plate Reader - 2147-01_Inhibitor_Dose_CherryPick_Activity.; format: functional, Mycobacterium tuberculosis H37Rv
[22] = biological target: Disintegrin and metalloproteinase domain-containing protein 17 (Homo sapiens, UniProt P78536); test: exosite inhibitors of ADAM17, dose response, biochemical (AID 743260)
[23] = inhibition of ADAM10 peptide cleavage – biochemical, FRET peptide substrate, recombinant human ADAM10, selectivity assay for ADAM17 exosite inhibitor project, dose response (AID 743259);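 also: ADAM10 enzyme cleaving a FRET peptide substrate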
[24] = CTGF mRNA reduction in DLD1 cells – cell-based, DLD1 colon cancer, RT-qPCR, cherry-pick, dose response (AID 1053122); format: functional; settings: Cancer cell lines
[25] = Mycobacterium tuberculosis BioA enzyme inhibitor Measured in Biochemical System Using Plate Reader - 2163-02_Inhibitor_Dose_DryPowder_Activity.
[26] = A Cell-Based Confirmatory Screen for Compounds that Inhibit VEEV, TC-83 (8).; format: functional
[27] = human cervical cancer cell viability loss – 24 h, plate reader, dry powder, cytotoxicity control, dose response (AID 686928); format: functional, cell-based; settings: HeLa
[28] = inhibition of bursicon-driven LGR2 cAMP signaling – cell-based, HEK293, CRE-luciferase reporter, cherry pick, dose response (AID 743342); format: functional
[29] = biological target: Acyl-protein thioesterase 2 (Homo sapiens, UniProt O95372); test: Late stage assay provider results from the probe development effort to identify selective inhibitors of LYPLA2: fluorescence-based biochemical dose-response assay.
Sequence of Acyl-protein thioesterase 2 (O95372 whole entry): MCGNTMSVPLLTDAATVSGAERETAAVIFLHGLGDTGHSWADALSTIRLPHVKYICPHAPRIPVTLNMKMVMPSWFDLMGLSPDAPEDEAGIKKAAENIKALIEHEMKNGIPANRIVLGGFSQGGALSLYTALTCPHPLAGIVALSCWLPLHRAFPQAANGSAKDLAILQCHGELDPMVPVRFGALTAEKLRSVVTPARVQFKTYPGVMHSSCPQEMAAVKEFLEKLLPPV

Sequence of Mu-type opioid receptor (P35372 whole entry): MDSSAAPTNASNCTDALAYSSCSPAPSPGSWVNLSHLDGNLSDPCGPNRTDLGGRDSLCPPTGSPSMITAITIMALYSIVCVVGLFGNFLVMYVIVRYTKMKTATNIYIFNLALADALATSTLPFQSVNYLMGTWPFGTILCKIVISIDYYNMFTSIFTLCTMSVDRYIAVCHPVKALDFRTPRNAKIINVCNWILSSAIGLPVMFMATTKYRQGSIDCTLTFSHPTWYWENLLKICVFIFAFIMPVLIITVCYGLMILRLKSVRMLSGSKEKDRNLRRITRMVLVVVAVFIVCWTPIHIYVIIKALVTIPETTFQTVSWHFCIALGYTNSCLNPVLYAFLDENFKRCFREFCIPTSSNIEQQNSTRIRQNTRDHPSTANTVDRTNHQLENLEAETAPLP
Sequence of Endoplasmic reticulum aminopeptidase 1 (Q9NZ08 whole entry): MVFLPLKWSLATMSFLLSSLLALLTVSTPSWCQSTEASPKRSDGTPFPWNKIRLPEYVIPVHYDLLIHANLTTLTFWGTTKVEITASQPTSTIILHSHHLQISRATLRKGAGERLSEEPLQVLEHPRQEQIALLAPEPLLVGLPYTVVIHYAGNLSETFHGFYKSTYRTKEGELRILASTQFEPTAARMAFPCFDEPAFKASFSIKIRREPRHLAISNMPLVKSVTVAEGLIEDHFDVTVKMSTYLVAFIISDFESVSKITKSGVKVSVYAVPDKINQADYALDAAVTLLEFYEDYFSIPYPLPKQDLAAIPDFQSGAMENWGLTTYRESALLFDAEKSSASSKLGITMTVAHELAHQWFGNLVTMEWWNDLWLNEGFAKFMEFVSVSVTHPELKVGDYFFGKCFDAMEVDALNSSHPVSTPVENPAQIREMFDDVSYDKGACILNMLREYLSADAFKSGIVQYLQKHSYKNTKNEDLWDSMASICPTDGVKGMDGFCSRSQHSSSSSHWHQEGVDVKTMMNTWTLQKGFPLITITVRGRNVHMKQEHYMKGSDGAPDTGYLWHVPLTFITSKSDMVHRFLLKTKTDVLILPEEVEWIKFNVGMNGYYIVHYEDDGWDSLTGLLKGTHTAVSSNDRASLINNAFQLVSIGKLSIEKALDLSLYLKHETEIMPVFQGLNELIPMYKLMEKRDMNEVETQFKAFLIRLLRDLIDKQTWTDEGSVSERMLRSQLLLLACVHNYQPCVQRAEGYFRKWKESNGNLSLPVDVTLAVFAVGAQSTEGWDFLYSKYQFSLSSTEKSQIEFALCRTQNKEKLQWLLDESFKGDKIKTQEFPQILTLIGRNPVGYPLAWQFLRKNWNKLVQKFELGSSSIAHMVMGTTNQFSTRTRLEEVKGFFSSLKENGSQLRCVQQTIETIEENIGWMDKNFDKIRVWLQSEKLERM
Sequence of Long-chain-fatty-acid--AMP ligase FadD28 (P9WQ59 whole entry, the tested form may be a part): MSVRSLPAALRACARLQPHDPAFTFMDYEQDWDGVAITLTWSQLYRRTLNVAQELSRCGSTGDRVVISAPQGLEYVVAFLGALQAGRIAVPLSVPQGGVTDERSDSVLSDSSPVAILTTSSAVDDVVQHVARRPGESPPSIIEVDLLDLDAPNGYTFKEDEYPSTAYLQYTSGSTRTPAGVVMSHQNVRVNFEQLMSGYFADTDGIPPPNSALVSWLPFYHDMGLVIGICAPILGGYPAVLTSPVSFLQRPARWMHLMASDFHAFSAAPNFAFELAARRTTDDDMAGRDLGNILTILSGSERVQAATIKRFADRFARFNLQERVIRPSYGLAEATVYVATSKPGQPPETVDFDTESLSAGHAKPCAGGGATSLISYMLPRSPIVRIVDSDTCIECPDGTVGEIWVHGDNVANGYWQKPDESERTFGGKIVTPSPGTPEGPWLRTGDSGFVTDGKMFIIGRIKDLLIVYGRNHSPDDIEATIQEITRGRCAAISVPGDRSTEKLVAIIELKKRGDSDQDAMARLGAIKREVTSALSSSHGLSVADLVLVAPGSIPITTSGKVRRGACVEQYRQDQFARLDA
Sequence of 5-hydroxytryptamine receptor 2A (P35363 whole entry): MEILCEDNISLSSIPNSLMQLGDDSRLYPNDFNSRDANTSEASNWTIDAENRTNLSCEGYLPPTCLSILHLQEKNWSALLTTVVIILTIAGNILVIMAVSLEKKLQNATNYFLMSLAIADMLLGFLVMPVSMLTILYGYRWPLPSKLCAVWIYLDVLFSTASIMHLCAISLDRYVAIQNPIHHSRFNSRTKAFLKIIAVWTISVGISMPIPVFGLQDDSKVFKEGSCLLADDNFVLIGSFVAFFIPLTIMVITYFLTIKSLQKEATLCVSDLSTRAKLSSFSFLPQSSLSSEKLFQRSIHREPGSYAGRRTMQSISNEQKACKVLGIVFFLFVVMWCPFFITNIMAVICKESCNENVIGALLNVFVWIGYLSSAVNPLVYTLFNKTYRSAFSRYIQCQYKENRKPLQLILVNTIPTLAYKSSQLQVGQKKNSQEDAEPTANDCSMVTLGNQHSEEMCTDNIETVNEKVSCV
Sequence of Genome polyprotein (P29990 2492-3391 limits assumed): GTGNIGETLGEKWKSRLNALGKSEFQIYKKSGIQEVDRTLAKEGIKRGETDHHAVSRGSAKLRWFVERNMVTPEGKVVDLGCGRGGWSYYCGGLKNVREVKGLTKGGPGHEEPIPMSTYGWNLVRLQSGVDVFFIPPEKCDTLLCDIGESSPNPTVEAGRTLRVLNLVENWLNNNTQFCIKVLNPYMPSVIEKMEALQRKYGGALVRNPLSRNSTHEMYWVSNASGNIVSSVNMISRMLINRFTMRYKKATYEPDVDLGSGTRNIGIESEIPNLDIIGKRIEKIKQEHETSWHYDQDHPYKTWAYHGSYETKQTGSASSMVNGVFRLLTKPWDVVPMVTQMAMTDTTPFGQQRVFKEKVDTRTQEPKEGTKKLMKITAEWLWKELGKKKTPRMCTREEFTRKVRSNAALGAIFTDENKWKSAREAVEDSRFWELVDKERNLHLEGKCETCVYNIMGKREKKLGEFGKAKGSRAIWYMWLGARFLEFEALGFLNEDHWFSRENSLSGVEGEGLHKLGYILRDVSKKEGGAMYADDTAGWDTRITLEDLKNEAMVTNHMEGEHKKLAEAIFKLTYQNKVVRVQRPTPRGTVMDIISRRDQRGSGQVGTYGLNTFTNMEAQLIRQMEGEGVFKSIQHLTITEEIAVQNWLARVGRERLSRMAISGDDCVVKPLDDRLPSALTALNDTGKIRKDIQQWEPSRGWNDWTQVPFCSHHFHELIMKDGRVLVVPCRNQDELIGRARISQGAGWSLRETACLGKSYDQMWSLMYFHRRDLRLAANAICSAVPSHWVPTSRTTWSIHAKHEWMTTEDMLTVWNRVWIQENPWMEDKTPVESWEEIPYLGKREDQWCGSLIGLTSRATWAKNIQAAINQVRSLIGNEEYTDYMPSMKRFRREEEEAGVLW
Sequence of fMet-Leu-Phe receptor (P21462 whole entry): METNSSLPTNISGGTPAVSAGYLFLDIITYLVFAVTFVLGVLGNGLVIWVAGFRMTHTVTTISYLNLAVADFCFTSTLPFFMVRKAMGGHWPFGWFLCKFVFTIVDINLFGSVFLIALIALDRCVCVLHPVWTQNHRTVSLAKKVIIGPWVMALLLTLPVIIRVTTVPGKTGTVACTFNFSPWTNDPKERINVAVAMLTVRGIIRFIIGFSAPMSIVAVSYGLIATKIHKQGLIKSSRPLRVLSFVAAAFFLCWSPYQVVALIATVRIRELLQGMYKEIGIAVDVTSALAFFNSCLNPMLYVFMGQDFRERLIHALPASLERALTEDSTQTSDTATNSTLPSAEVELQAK
Sequence of Disintegrin and metalloproteinase domain-containing protein 17 (P78536 whole entry, the tested form may be a part): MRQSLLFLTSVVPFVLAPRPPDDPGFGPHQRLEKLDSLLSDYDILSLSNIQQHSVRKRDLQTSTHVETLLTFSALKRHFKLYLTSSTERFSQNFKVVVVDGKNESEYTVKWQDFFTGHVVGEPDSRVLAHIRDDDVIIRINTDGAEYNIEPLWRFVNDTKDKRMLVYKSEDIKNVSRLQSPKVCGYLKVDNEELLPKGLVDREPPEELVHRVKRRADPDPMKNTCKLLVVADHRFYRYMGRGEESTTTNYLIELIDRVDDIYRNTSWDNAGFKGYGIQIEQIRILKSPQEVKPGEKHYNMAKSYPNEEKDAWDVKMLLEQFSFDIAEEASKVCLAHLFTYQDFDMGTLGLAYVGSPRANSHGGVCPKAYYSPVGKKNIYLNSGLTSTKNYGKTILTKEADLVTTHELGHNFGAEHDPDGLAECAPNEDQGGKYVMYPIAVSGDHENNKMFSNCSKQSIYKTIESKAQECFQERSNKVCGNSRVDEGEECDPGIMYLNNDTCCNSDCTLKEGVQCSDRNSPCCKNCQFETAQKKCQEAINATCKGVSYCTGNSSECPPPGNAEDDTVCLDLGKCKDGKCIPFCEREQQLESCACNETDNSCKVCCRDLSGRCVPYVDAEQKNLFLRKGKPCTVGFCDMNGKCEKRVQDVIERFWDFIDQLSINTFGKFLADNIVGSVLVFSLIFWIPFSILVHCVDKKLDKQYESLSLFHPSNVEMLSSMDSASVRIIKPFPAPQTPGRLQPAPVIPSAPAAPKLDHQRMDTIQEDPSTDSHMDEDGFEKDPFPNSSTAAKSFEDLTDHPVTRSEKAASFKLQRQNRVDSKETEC

Cc1nn2c(O)c(C#N)c(-c3ccccc3)nc2c1-c1ccccc1
Ki [1]: > 66.7 µM (inactive)
AC50 [2]: 20 µM (inconclusive)

CNc1ccccc1C(C)(C)c1cc(-c2cccc(Br)c2)no1
AC50 [3]: 2 µM (active)
AC50 [4]: 44.5 µM (active)
AC50 [5]: 9.45 µM (active)
IC50 [6]: 1.8 µM (active)
IC50 [7]: > 80 µM (inactive)

Cc1cc(=O)oc2c(CN3CCN(CCO)CC3)c(O)ccc12
AC50 [8]: 9.03 µM (active)

O=C1C=C(Nc2cccnc2)c2ccccc2C1=O
CC50 [9]: 12.1 µM (active)
AC50 [10]: 3.7 µM (active)
IC50 [11]: 4.03 µM (active)

Cc1cccc(C)c1-n1nnnc1C(C1CC1)N1CCN(C/C=C/c2ccccc2)CC1 (centres undefined)
EC50 [12]: 92.6 µM (inactive)
EC50 [13]: 0.94 µM (active)

CN1OC[C@@H]2CN[C@H](c3ccc(-c4cccc(F)c4)cc3)C[C@@H]21
IC50 [14]: > 67.5 µM (inactive)
IC50 [15]: > 67.5 µM (inactive)

Cc1[nH]n(-c2ncc(-c3ccccc3)s2)c(=O)c1C(c1ccc(Br)cc1)C(C#N)C#N (centres undefined)
EC50 [16]: 3.39 µM (active)
EC50 [17]: > 150 µM (not active)
IC50 [18]: 4.67 µM (active)
EC50 [19]: 5.75 µM (active)
IC50 [20]: 22.3 µM (active)
AC50 [21]: 35.5 µM (active)
IC50 [22]: > 69.5 µM (inactive)
IC50 [23]: 10.6 µM (inactive)

O=C(c1cccc(F)c1)N1CCCCN2[C@@H](CO)[C@H](c3ccc(C#CC4(O)CCCC4)cc3)[C@@H]2C1
AC50 [24]: 1.16 µM (active)

O=C(Nc1cccc(Cl)c1)N1CCN(c2ccccc2)CC1
AC50 [25]: 11 µM (active)

CNCCCN(C)Cc1nc2ccc([N+](=O)[O-])cc2c(=O)n1-c1ccccc1
IC50 [26]: < 0.5 µM (active)

COc1ccc(-n2cnc(=O)c3ccccc32)cc1Cl
AC50 [27]: > 160 µM (inactive)

C[C@H](CO)N1C[C@H](C)[C@H](CN(C)C(=O)Nc2ccc(F)cc2)OCCCC[C@H](C)Oc2ccc(NC(=O)NC3CCCCC3)cc2C1=O
AC50 [28]: 8.05 µM (active)

O=C(CN1CCN(C(=O)c2ccco2)CC1)Nc1cc(C(F)(F)F)ccc1Cl
IC50 [29]: > 10 µM (inactive)
